Consider 22 molecules from PubChem BioAssay AID330 (DTP/NCI, 2004).

Where “and” joins values, the source holds several entries; their conditions need not be identical. Equal entries are not always repeated. Inconclusive results and toxic doses are left out.

This assay deals with P388 leukemia ip, CD2F1 mice, survival T/C. Nature of the assay: NCI In Vivo Anticancer Drug Screen. Data for tumor model P388 Leukemia (intraperitoneal) in CD2F1 (CDF1) mice. The settings on record: endpoint: median survival time, higher = longer survival. The method in brief: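 Mice carrying the transplanted tumor received test compound or vehicle. Survival was recorded in each group, and the value is the treated-group measurement divided by that of the vehicle-treated control group.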

Where [1] appears, read: dose: 50.0 mg/kg/injection, schedule: Q01DX005 (ip), vehicle: saline with Tween-80.
[2] abbreviates: dose: 100.0 mg/kg/injection, schedule: Q01DX005 (ip), vehicle: saline with Tween-80.
The mark [3] stands for this setting: dose: 200.0 mg/kg/injection, schedule: Q01DX005 (ip), vehicle: saline with Tween-80.
The mark [4] stands for this setting: dose: 50.0 mg/kg/injection, schedule: Q01DX005 (ip), vehicle: Klucel (hydroxypropylcellulose) (HPC).
The mark [5] stands for this setting: dose: 50.0 mg/kg/injection, schedule: Q01DX009 (ip), vehicle: Klucel (hydroxypropylcellulose) (HPC).
Setting [6] is: dose: 100.0 mg/kg/injection, schedule: Q01DX009 (ip), vehicle: saline with Tween-80.
The mark [7] stands for this setting: dose: 200.0 mg/kg/injection, schedule: Q01DX009 (ip), vehicle: saline with Tween-80.
Setting [8] is: dose: 25.0 mg/kg/injection, schedule: Q01DX009 (ip), vehicle: saline with Tween-80.
Where [9] appears, read: dose: 60.0 mg/kg/injection, schedule: Q01DX005 (ip), vehicle: Klucel (hydroxypropylcellulose) (HPC).
The mark [10] stands for this setting: dose: 120.0 mg/kg/injection, schedule: Q01DX005 (ip), vehicle: Klucel (hydroxypropylcellulose) (HPC).
The mark [11] stands for this setting: dose: 100.0 mg/kg/injection, schedule: Q04DX002 (ip), vehicle: saline with Tween-80.
Setting [12] is: dose: 200.0 mg/kg/injection, schedule: Q04DX002 (ip), vehicle: saline with Tween-80.
The mark [13] stands for this setting: dose: 400.0 mg/kg/injection, schedule: Q04DX002 (ip), vehicle: saline with Tween-80.

On to `O=C1c2ccccc2-c2cc(Br)c(N=Cc3c[nH]c4ccccc34)cc21`, for which the T/C by setting is: under setting [1], 105 % of control; under setting [2], 95 % of control; under setting [3], 89 % of control.

Consider `O=C1S/C(=C2\C(=O)N(CN3CCOCC3)c3ccc(Br)cc32)C(=O)N1CN1CCOCC1`, for which the T/C is 100 % of control under setting [4]; 106 % of control (dose: 100.0 mg/kg/injection, schedule: Q01DX005 (ip), vehicle: Klucel (hydroxypropylcellulose) (HPC)); 102 % of control (dose: 200.0 mg/kg/injection, schedule: Q01DX005 (ip), vehicle: Klucel (hydroxypropylcellulose) (HPC)).

For the molecule `CC1(C2CCC3(C)OC3C2)CO1` (stereo not given), the T/C is, setting by setting: under setting [1], 100 % of control; under setting [2], 100 % of control; under setting [3], 100 % of control.

On to `O=C1c2ccccc2C(=O)C2C(=O)c3ccccc3C(=O)C12` (stereo not given), for which the T/C is 95 % of control under setting [1], 95 % of control under setting [2] and 103 % of control under setting [3].

With `Cc1n[nH]c(=S)nc1C`, the T/C runs as follows: (dose: 12.5 mg/kg/injection, schedule: Q04DX003 (ip), vehicle: saline with Tween-80) 100 % of control; (dose: 25.0 mg/kg/injection, schedule: Q04DX003 (ip), vehicle: saline with Tween-80) 93 % of control; (dose: 50.0 mg/kg/injection, schedule: Q04DX003 (ip), vehicle: saline with Tween-80) 100 % of control; (dose: 100.0 mg/kg/injection, schedule: Q04DX003 (ip), vehicle: saline with Tween-80) 95 % of control.

As to `COCN1C(=O)CN=C(c2ccccc2)c2cc(NO)ccc21`, the T/C is, setting by setting: (dose: 12.5 mg/kg/injection, schedule: Q01DX009 (ip), vehicle: Klucel (hydroxypropylcellulose) (HPC)) 105 % of control; (dose: 25.0 mg/kg/injection, schedule: Q01DX009 (ip), vehicle: Klucel (hydroxypropylcellulose) (HPC)) 105 % of control; under setting [5], 100 % of control and 106 % of control.

`O=C1C(=C2C=CN(CCCN3CCCCC3)C=C2)C(=O)c2ccccc21`: the T/C under setting [5] is 91 % of control; the T/C (dose: 100.0 mg/kg/injection, schedule: Q01DX009 (ip), vehicle: Klucel (hydroxypropylcellulose) (HPC)) is 102 % of control; the T/C (dose: 200.0 mg/kg/injection, schedule: Q01DX009 (ip), vehicle: Klucel (hydroxypropylcellulose) (HPC)) is 102 % of control.

As to `CCOc1ccc(NC(=O)CC(C)O)cc1` (stereo not given), the T/C runs as follows: (dose: 50.0 mg/kg/injection, schedule: Q01DX009 (ip), vehicle: saline with Tween-80) 94 % of control; under setting [6], 93 % of control; under setting [7], 96 % of control.

As for `CCCCCCCCCCCCCCCCC(C(=O)O)C(O)(CC(=O)O)C(=O)O` (stereo not given), the T/C was 95 % of control (dose: 8.75 mg/kg/injection, schedule: Q01DX009 (ip), vehicle: Klucel (hydroxypropylcellulose) (HPC)); 91 % of control (dose: 12.5 mg/kg/injection, schedule: Q01DX009 (ip), vehicle: saline with Tween-80); 101 % of control (dose: 17.5 mg/kg/injection, schedule: Q01DX009 (ip), vehicle: Klucel (hydroxypropylcellulose) (HPC)); 94 % of control under setting [8]; 95 % of control (dose: 35.0 mg/kg/injection, schedule: Q01DX009 (ip), vehicle: Klucel (hydroxypropylcellulose) (HPC)); 87 % of control (dose: 70.0 mg/kg/injection, schedule: Q01DX009 (ip), vehicle: Klucel (hydroxypropylcellulose) (HPC)). For the same molecule, the T/C under setting [6] is 90 % of control.

For the molecule `OCC1OC(O)C(Cl)(Cl)C(O)C1O` (stereo not given), the T/C (dose: 50.0 mg/kg/injection, schedule: Q01DX009 (ip), vehicle: saline) was 107 % of control; the T/C (dose: 100.0 mg/kg/injection, schedule: Q01DX009 (ip), vehicle: saline) was 117 % of control; the T/C (dose: 200.0 mg/kg/injection, schedule: Q01DX009 (ip), vehicle: saline) is 112 % of control.

As for `CC(=O)CCC1=C(O)C(C)=C(C)C(=O)C1=O`, the T/C by setting is: under setting [9], 103 % of control; under setting [10], 115 % of control; (dose: 240.0 mg/kg/injection, schedule: Q01DX005 (ip), vehicle: Klucel (hydroxypropylcellulose) (HPC)) 109 % of control.

For the molecule `COc1cc2c(cc1OC)C(C#N)N(C(=O)c1ccccc1)C=C2` (stereo not given), the T/C by setting is: (dose: 0.1 mg/kg/injection, schedule: Q01DX009 (ip), vehicle: water) 98 % of control; (dose: 0.19 mg/kg/injection, schedule: Q01DX009 (ip), vehicle: water) 100 % of control; (dose: 0.38 mg/kg/injection, schedule: Q01DX009 (ip), vehicle: water) 98 % of control; (dose: 0.75 mg/kg/injection, schedule: Q01DX009 (ip), vehicle: water) 100 % of control; (dose: 1.5 mg/kg/injection, schedule: Q01DX009 (ip), vehicle: water) 100 % of control.

On to `Nc1ccccc1N`, for which the T/C by setting is: under setting [8], 95 % of control; under setting [6], 120 % of control; (dose: 100.0 mg/kg/injection, schedule: Q04DX003 (ip), vehicle: saline sonified) 100 % of control; under setting [7], 185 % of control.

With `N=C(N)c1ccc(-c2ccc(-c3ccc(C(=N)N)cc3)s2)cc1`, the T/C reads like this: (dose: 12.5 mg/kg/injection, schedule: Q04DX003 (ip), vehicle: suspension in saline) 106 % of control; (dose: 25.0 mg/kg/injection, schedule: Q04DX003 (ip), vehicle: suspension in saline) 120 % of control; (dose: 100.0 mg/kg/injection, schedule: Q04DX003 (ip), vehicle: suspension in saline) 169 % of control.

For the molecule `Cc1n[nH]c(=O)n(/N=C/c2ccc(N(C)C)cc2)c1=O`, the T/C was 98 % of control under setting [9] and 97 % of control under setting [10].

For `Clc1ccc(CN2COc3c(cc(Cl)c4cccnc34)C2)cc1`, the T/C is, setting by setting: (dose: 100.0 mg/kg/injection, schedule: Q04DX003 (ip), vehicle: Klucel (hydroxypropylcellulose) (HPC)) 88 % of control; (dose: 200.0 mg/kg/injection, schedule: Q04DX003 (ip), vehicle: Klucel (hydroxypropylcellulose) (HPC)) 91 % of control; (dose: 400.0 mg/kg/injection, schedule: Q04DX003 (ip), vehicle: Klucel (hydroxypropylcellulose) (HPC)) 106 % of control.

With `COc1ccc2c(c1)C(c1cccc3ccccc13)OC2` (stereo not given), the T/C was 100 % of control (dose: 12.5 mg/kg/injection, schedule: Q01DX005 (ip), vehicle: Klucel (hydroxypropylcellulose) (HPC)); 88 % of control (dose: 25.0 mg/kg/injection, schedule: Q01DX005 (ip), vehicle: Klucel (hydroxypropylcellulose) (HPC)); 86 % of control and 91 % of control under setting [4].

In the case of `Cc1[nH]c(=O)[nH]c(=O)c1/C=C/C(=O)NC(CO)CS(=O)CS(C)=O` (stereo not given), the T/C (dose: 1.2 mg/kg/injection, schedule: Q01DX009 (ip), vehicle: water) is 119 % of control; the T/C (dose: 2.2 mg/kg/injection, schedule: Q01DX009 (ip), vehicle: water) is 122 % of control; the T/C (dose: 2.4 mg/kg/injection, schedule: Q01DX009 (ip), vehicle: water) is 119 % of control.

Take `CCCCC/C=C/C(=O)OC`: the T/C under setting [11] is 100 % of control, the T/C under setting [12] is 100 % of control and the T/C under setting [13] was 100 % of control.

`Cc1cc([Se][Se]c2cc(C)c(C)cc2[N+](=O)[O-])c([N+](=O)[O-])cc1C`: the T/C (dose: 60.0 mg/kg/injection, schedule: Q01DX005 (ip), vehicle: saline with Tween-80) is 92 % of control; the T/C (dose: 120.0 mg/kg/injection, schedule: Q01DX005 (ip), vehicle: saline with Tween-80) was 93 % of control; the T/C (dose: 240.0 mg/kg/injection, schedule: Q01DX005 (ip), vehicle: saline with Tween-80) is 91 % of control.

As to `CC1COC2(CC1OC(=O)/C=C/c1ccccc1)OC1CC(C(=O)OC3OC(C)C(O)C(O)C3OC3OC(C)C(O)C(O)C3O)CCC1C21CO1` (stereo not given), the T/C is 106 % of control (dose: 1.88 mg/kg/injection, schedule: Q01DX005 (ip), vehicle: saline + alcohol); 106 % of control (dose: 3.75 mg/kg/injection, schedule: Q01DX005 (ip), vehicle: saline + alcohol); 111 % of control and 118 % of control (dose: 7.5 mg/kg/injection, schedule: Q01DX005 (ip), vehicle: saline + alcohol); 118 % of control (dose: 15.0 mg/kg/injection, schedule: Q01DX005 (ip), vehicle: saline + alcohol); 153 % of control (dose: 60.0 mg/kg/injection, schedule: Q01DX005 (ip), vehicle: saline + alcohol).

In the case of `CS(C)(=O)=Nc1ccc(Br)cc1`, the T/C by setting is: under setting [11], 98 % of control; under setting [12], 98 % of control; under setting [13], 103 % of control.
